# Measurements taken from patent US11548875B2, “Inhibitor compounds for male contraception” (University of Washington, priority 2018, dated 2023).
# Assays:
# ALDH1A1 = molecular target: T1, ALDH1A1 (Homo sapiens, UniProt P00352); test: Cell-based enzyme assay, retinoic acid production in ALDH1A1/H1299 cells
# T1 sequence (P00352 1-501): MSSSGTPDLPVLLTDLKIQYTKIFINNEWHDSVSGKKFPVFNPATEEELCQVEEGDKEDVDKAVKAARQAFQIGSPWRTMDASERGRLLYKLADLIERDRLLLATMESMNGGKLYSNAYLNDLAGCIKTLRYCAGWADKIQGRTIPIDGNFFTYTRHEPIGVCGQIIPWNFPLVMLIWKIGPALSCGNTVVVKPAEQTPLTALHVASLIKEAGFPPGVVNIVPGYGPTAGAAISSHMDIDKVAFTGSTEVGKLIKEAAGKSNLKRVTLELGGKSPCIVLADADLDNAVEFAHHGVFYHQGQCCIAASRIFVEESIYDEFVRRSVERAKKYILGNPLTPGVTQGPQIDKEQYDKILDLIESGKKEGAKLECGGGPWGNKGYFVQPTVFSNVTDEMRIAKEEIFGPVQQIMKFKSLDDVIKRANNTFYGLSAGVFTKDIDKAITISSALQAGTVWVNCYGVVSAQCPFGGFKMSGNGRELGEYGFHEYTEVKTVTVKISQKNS
# Summary of the method: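 ALDH1A1- or ALDH1A2-stably transfected H1299 cells grown to confluence, then treated 20 h in serum-free RPMI-1640 with 2 μM all-trans-retinal plus varying inhibitor concentrations at 37 °C. Retinoic acid in cells and media quantified; inhibition from RA levels with vs without inhibitor.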
# ALDH1A2 = molecular target: T2, ALDH1A2 (Homo sapiens, UniProt O94788); test: Inhibitor screening using purified enzymes: ALDH1A2 activity, retinoic acid production by HPLC (5 uM initial screen, then IC50); format: biochemical; design: histidine-tag (C); made in house; host or cells: bacterial expression (pET28 vector, IPTG induction); settings: purified enzyme
# T2 sequence (O94788 1-518): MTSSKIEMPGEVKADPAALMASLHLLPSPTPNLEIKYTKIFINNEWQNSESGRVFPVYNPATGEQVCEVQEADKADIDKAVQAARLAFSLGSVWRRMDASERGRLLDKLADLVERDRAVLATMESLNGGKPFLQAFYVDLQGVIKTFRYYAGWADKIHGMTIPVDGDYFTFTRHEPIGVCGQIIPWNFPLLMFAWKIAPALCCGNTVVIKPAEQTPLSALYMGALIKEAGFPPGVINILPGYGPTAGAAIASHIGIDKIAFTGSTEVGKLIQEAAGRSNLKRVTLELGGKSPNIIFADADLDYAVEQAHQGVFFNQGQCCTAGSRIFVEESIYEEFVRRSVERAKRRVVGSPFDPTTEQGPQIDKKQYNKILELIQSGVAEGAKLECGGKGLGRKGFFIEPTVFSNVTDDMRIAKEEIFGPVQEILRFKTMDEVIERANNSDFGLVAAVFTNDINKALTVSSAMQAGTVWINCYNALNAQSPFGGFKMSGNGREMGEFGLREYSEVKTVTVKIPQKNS
# Summary of the method: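 Purified His-tagged human enzymes in 10 mM HEPES pH 8.0, 150 mM KCl, 2 mM EDTA with 2 mM NAD, all-trans-retinal substrate; retinoic acid quantified by HPLC. ALDH1A2 initial screen: 1 μg enzyme, 5 μM retinal, 5 μM inhibitor, 15 min, 37° C; IC50 runs: 0.5 μg enzyme, 0.5 μg retinal, 5 min, 37° C.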
EC50 (ALDH1A1),IC50 (ALDH1A2),Compound
< 0.5 µM,5.69 µM,"CN(C)c1ccc(C(=O)N2CCN(c3ccc([N+](=O)[O-])c(N4CCCC4)c3)CC2)cc1 [Compound 346, 4-Dimethylaminophenyl-1-{4-[4-nitro-3-(pyrrolidin-1-yl)phenyl]piperazin-1-yl}methanone]"
0.33 µM,0.042 µM,"CC(=O)n1cccc1C(=O)N1CCN(c2ccc([N+](=O)[O-])c(N3CCCC3)c2)CC1 [Compound 347, {4-[4-Nitro-3-(pyrrolidin-1-yl)phenyl]piperazin-1-yl}(1-acetyl-pyrrol-2yl)methanone]"
0.244 µM,2.3 µM,"Cn1cccc1C(=O)N1CCN(c2ccc(NC(=O)C(Cl)Cl)c(N3CCCC3)c2)CC1 [Compound 367, 1-[4-(4-N-Dichloroacetyl-3-(pyrrolidin-1-yl)phenyl]piperazin-1-yl](1-methyl-1H-pyrrol-2-yl)methanone]"
0.069 µM,3.6 µM,"Cn1cccc1C(=O)N1CCN(c2ccc(NC(=O)CCl)c(N3CCCC3)c2)CC1 [Compound 372, 1-[4-(4-N-Chloroacetyl-3-(pyrrolidin-1-yl)phenyl]piperazin-1-yl](1-methyl-1H-pyrrol-2-yl)methanone]"
0.37 µM,2.13 µM,Cn1cccc1C(=O)N1CCN(c2ccc(-c3ccc([N+](=O)[O-])cc3)c(N3CCCCC3)c2)CC1 [Compound 373]
